We go through 32 molecules from patent US20240246978A1, “PHENYLDIHYDROPYRIMIDINE COMPOUND AND USE THEREOF” (HEPAGENE THERAPEUTICS (HK) LIMITED, priority 2021, published 2024).

One assay has as its system Hepatitis B virus (HBV). Briefly: In vitro anti-HBV activity by q-PCR assay of HBV DNA in HepG2.2.15 cell supernatant. Type of assay: cell-based. As to conditions: HepG2.2.15 cells; inhibition of HBV DNA copies in supernatant by qPCR; compound renewed after 3 days, 3 more days; 0.5% DMSO; read-out: EC50. The method, then:
Compound preparation and cell culture: The test compounds were prepared as 20 mM storage solution using the appropriate volume of dimethyl sulfoxide (DMSO) (Sigma-D2650) according to the relative molecular weight and mass.
The growth of HepG2.2.15 cells (Wuhan Institute of Virology, Chinese Academy of Sciences) in the culture flasks were observed under a microscope, the cells were digested with trypsin (Invitrogen-25300062), and resuspended with cell culture medium (DMEM/F12, Invitrogen-11330032; containing 2% fetal bovine serum FBS, HyClone-SV30087.03, 100 U/Ml penicillin, Hyclone-SV30010, 100 μg/mL streptomycin, Hyclone-SV30010, 1% non-essential amino acids, Invitrogen-11140-050, 2 mM L-glutamine, Gibco-35050-061); the cells were counted using a Vi-Cell cell counter and the volume and concentration of cell suspension were adjusted according to the number of cell spreads and the number of cells required per well, and the cell spreading density of the 96-well cell culture plates (Costar-3599) was 60,000 cells/well, 100 μL/well; the cell plates with the cells were placed in a 5% CO2, 37° C. incubator and incubated overnight.
The experiments were set at a starting concentration of 100 μM for the test compound and 20 nM for the reference compound entecavir (ETV, WuXi AppTec), with a 3-fold gradient dilution and 9 concentration points. A 96-well V-bottom plate was used, the corresponding test compounds and reference compounds ETV were diluted to obtain 200× compound source plate; a sterile 2 mL deep-well plate was added with 297 μL of cell culture medium, 3 μL of the compounds in the 200× compound source plate were added to the corresponding deep-well plate, diluted by 100-fold, and mixed well with a pipette tip blowing to obtain a 2× compound plate, and then the plate was sealed with parafilm and then stored in a nitrogen cabinet to be used for replacement of the compounds. The cell plate laid out the day before was took and added with 100 μL of diluted 2× compound to each of the corresponding cell wells with a final concentration of 0.5% DMSO. Example of compound distribution in the cell plate is shown below*:
After the cell plates were reintroduced into a 5% CO2, 37° C. cell incubator for 3 days, the medium was removed from the cell culture plates and 100 μL of cell culture solution was replenished to each well. The 200× compound source plate configured was removed from the nitrogen cabinet, a sterile 2 mL deep-well plate was added with 297 μL of cell culture medium, 3 μL of the compounds in the 200× compound source plate was added to the corresponding deep-well plate, diluted by 100-fold, and mixed well with a pipette tip blowing to obtain a 2× compound plate. To the cell wells containing 100 μL of medium, 100 μL of diluted 2× compound was added, with a final concentration of DMSO of 0.5%; the cell plates were reintroduced into 5% CO2 and incubated in a 37° C. cell incubator for 3 days.
The 96-well cell plate was removed from the incubator, centrifuged at 3,000 rpm for 2 min with centrifuge (Beckman, Allegra-X15R), and the cell supernatant was collected for subsequent HBV DNA extraction. 50 μL of cell culture solution were added to each well in the cell plate, then 50 μL of CellTiter-Glo Detection Reagent (Promega-G7573) were added to each well, and the plate was shaken for 10 min away from light to allow the cells to be lysed; the luminescence value of each well was detected by using an enzyme labeller (BioTek Synergy 2).
HBV DNA Extraction: HBV DNA was extracted from cell supernatants using the QIAamp 96 DNA Blood Kit (Qiagen-51162) as described in the kit instructions; the volume of cell supernatant was 150 μL and the final DNA elution volume was 180 μL. […]
As for `C#Cc1cc(F)ccc1[C@H]1N=C(c2nccs2)NC(CN2CCN3C(=O)N(CC(C)(C)C(=O)O)C[C@@H]3C2)=C1C(=O)OCC` [SZ-023089], the EC50 (usually the midpoint of the concentration-response curve) is less than 0.05 µM.

As for `C#Cc1cc(F)ccc1[C@H]1N=C(c2nccs2)NC(CN2[C@@H]3CC(CC(=O)O)C[C@H]2C(F)(F)C3)=C1C(=O)OCC` (some centres unmarked) [SZ-023091], the EC50 is less than 0.05 µM.

On to `C#Cc1cc(F)ccc1[C@@H]1N=C(c2nccs2)NC(CN2CCO[C@H](/C=C/C(=O)O)C2)=C1C(=O)OCC` [SZ-023093], for which the EC50 was less than 0.05 µM.

Turning to `C#Cc1cc(F)ccc1[C@H]1N=C(c2nccs2)NC(CN2CCO[C@H](CCC(=O)O)C2)=C1C(=O)OCC` [SZ-023095], the EC50 was less than 0.05 µM.

For the molecule `C#Cc1cc(F)ccc1[C@@H]1N=C(c2nccs2)NC(CN2CCOCC2)=C1C(=O)OCC` [SZ-023115-P1], the EC50 is greater than 1 µM.

In the case of `C#Cc1cc(F)ccc1[C@H]1N=C(c2nccs2)NC(CN2CCOCC2)=C1C(=O)OCC` [SZ-023115-P2], the half-maximal effective concentration (EC50) is less than 0.05 µM.

The same assay, now with this note: Hepatitis B virus, 72 h; HepG2.2.15 cells; inhibition of HBV DNA copies in supernatant by qPCR; compound renewed after 3 days, 3 more days; 0.5% DMSO; read-out: EC50.
On to `C#Cc1cc(F)ccc1C1N=C(c2nccs2)NC(CN2CCN3C(=O)N(CC(C)(C)C(=O)O)C[C@@H]3C2)=C1C(=O)OCC` (mixture of isomers) [SZ-023089RAC], for which the concentration for a half-maximal effect (EC50) is less than 0.05 µM.

On to `C#Cc1cc(F)ccc1C1N=C(c2nccs2)NC(CN2CCO[C@H](/C=C/C(=O)O)C2)=C1C(=O)OCC` (mixture of isomers) [SZ-023093RAC], for which the concentration for a half-maximal effect (EC50) is less than 0.05 µM.

For the molecule `C#Cc1cc(F)ccc1C1N=C(c2nccs2)NC(CN2CCO[C@H](CCC(=O)O)C2)=C1C(=O)OCC` (mixture of isomers) [SZ-023095RAC], the EC50 is 0.05 to 0.1 µM.

As for `C#Cc1cc(F)ccc1C1N=C(c2nccs2)NC(CN2CCOCC2)=C1C(=O)OCC` (racemic) [SZ-023115RAC], the EC50 was less than 0.05 µM.

`CCOC(=O)C1=C(CN2CCOCC2)NC(c2nccs2)=NC1c1ccc(F)cc1C#N` (racemic) [SZ-023117RAC]: the EC50 was 0.05 to 0.1 µM.

As for `C#Cc1c(C2N=C(c3nccs3)NC(CN3CCN4C(=O)N(CC(C)(C)C(=O)O)C[C@@H]4C3)=C2C(=O)OCC)ccc(F)c1F` (some centres unmarked) [SZ-023127], the EC50 is less than 0.05 µM.

Regarding `C#Cc1cc(F)c(F)cc1[C@@H]1N=C(c2nccs2)NC(CN2CCN3C(=O)N(CC(C)(C)C(=O)O)C[C@@H]3C2)=C1C(=O)OCC` [SZ-023129], the EC50 is 0.1 to 1 µM.

For the molecule `[2H]C([2H])([2H])C([2H])([2H])OC(=O)C1=C(CN2CCN3C(=O)N(CC(C)(C)C(=O)O)C[C@@H]3C2)NC(c2nccs2)=N[C@H]1c1cccc(F)c1C#C` [SZ-023133], the EC50 is less than 0.05 µM.

As for `[2H]C([2H])([2H])OC(=O)C1=C(CN2CCO[C@H](/C=C/C(=O)O)C2)NC(c2nccs2)=N[C@H]1c1ccc(F)cc1C#C` [SZ-023143], the half-maximal effective concentration (EC50) is less than 0.05 µM.

As for `C#Cc1cc(F)ccc1[C@@H]1N=C(c2nccs2)NC(CN2CCN3C(=O)N(CC(C)(C)C(=O)O)C[C@@H]3C2)=C1C(=O)OC` [SZ-023145], the EC50 was less than 0.05 µM.

Regarding `[2H]C([2H])([2H])OC(=O)C1=C(CN2CCN3C(=O)N(CC(C)(C)C(=O)O)C[C@@H]3C2)NC(c2nccs2)=N[C@H]1c1ccc(F)cc1C#C` [SZ-023147], the EC50 is less than 0.05 µM.

Take `[2H]C([2H])([2H])C([2H])([2H])OC(=O)C1=C(CN2CCN3C(=O)N(CC(C)(C)C(=O)O)C[C@@H]3C2)NC(c2nccs2)=N[C@H]1c1ccc(F)cc1C#C` [SZ-023149]: the half-maximal effective concentration (EC50) was less than 0.05 µM.

In the case of `C#Cc1cc(F)ccc1[C@@H]1N=C(c2nccs2)NC(CN2CCN3C(=O)N(CC(C)(C)C(=O)O)C[C@@H]3C2)=C1C(=O)SC` [SZ-023151], the EC50 is 0.1 to 1 µM.

`C#Cc1cc(F)ccc1[C@@H]1N=C(c2nccs2)NC(CN2CCO[C@H](C3CC3C(=O)O)C2)=C1C(=O)OCC` (some centres unmarked) [SZ-023342]: the EC50 lay in the range of 0.05 to 0.1 µM.

Turning to `C#Cc1cc(Cl)ccc1C1N=C(c2nccs2)NC(CN2CCN3C(=O)N(CC(C)(C)C(=O)O)C[C@@H]3C2)=C1C(=O)OCC` (some centres unmarked) [SZ-023366], the EC50 was less than 0.05 µM.

`C#Cc1cc(C)ccc1C1N=C(c2nccs2)NC(CN2CCN3C(=O)N(CC(C)(C)C(=O)O)C[C@@H]3C2)=C1C(=O)OCC` (some centres unmarked) [SZ-023368]: the EC50 was in the range of 0.1 to 1 µM.

As to `C#Cc1ccccc1C1N=C(c2nccs2)NC(CN2CCN3C(=O)N(CC(C)(C)C(=O)O)C[C@@H]3C2)=C1C(=O)OCC` (some centres unmarked) [SZ-023370], the EC50 was 0.05 to 0.1 µM.

On to `C#Cc1cc(Cl)ccc1C1N=C(c2nccs2)NC(CN2CCN3C(=O)N(c4ccc(CCC(=O)O)cc4)C[C@@H]3C2)=C1C(=O)OCC` (some centres unmarked) [SZ-023380], for which the half-maximal effective concentration (EC50) is less than 0.05 µM.

Turning to `C#Cc1cc(F)ccc1[C@@H]1N=C(c2nccs2)NC(CN2CCN3C(=O)N(c4ccc(CCC(=O)O)cc4)C[C@@H]3C2)=C1C(=O)OCC` [SZ-023384], the EC50 was less than 0.05 µM.

As for `C#Cc1c(F)cccc1[C@@H]1N=C(c2nccs2)NC(CN2CCN3C(=O)N(c4ccc(CCC(=O)O)cc4)C[C@@H]3C2)=C1C(=O)OCC` [SZ-023386], the EC50 is less than 0.05 µM.

On to `C#Cc1cc(F)ccc1[C@@H]1N=C(c2nccs2)NC(CN2CCN3C(=O)N(c4ccc(C(=O)O)c(F)c4)C[C@@H]3C2)=C1C(=O)OCC` [SZ-023388], for which the EC50 is less than 0.05 µM.

On to `C#Cc1c(F)cccc1[C@@H]1N=C(c2nccs2)NC(CN2CCN3C(=O)N(c4ccc(C(=O)O)c(F)c4)C[C@@H]3C2)=C1C(=O)OCC` [SZ-023390], for which the EC50 is less than 0.05 µM.

Turning to `C#Cc1cc(F)ccc1[C@@H]1N=C(c2nccs2)NC(CN2CCN3C(=O)N(CC(C)(C)CC(=O)O)C[C@@H]3C2)=C1C(=O)OCC` [SZ-023392], the EC50 is less than 0.05 µM.

The same assay, now with this note: Hepatitis B virus, HepG2.2.15, 72 h.
As to `C#Cc1cc(F)ccc1C1N=C(c2nccs2)NC(CN2[C@@H]3C[C@H](CC(=O)O)C[C@H]2C(F)(F)C3)=C1C(=O)OCC` (mixture of isomers) [SZ-023091RAC], the EC50 was less than 0.05 µM.

For the molecule `C#Cc1c(F)cccc1[C@@H]1N=C(c2nccs2)NC(CN2[C@@H]3C[C@H](CC(=O)O)C[C@H]2C(F)(F)C3)=C1C(=O)OCC` [SZ-023085C], the EC50 is less than 0.05 µM.

Consider `C#Cc1cc(F)ccc1[C@@H]1N=C(c2nccs2)NC(CN2[C@@H]3CC(CC(=O)O)C[C@H]2C(F)(F)C3)=C1C(=O)OCC` (some centres unmarked) [SZ-023091C], for which the EC50 is less than 0.05 µM.
